Measured values: BindingDB's records for doi:10.1158/2159-8290.CD-13-1010 (Fred Hutchinson Cancer Research Center, 2014)

target: Transmembrane protease serine 2 (Homo sapiens, UniProt O15393); assay: titration assay
From the text: To identify inhibitors of TMPRSS2 that may be used directly in clinical studies or as lead compounds to develop targeted drugs, we screened several chemical libraries with active TMPRSS2 protease, the […] TMPRSS2 peptide substrate Boc-Gln-Ala-Arg-MCA, and compound concentrations of 5 μmol/L. We have used a similar approach to identify inhibitors of the hepsin protease.

Transmembrane protease serine 2, sequence (O15393 1-255 limits assumed): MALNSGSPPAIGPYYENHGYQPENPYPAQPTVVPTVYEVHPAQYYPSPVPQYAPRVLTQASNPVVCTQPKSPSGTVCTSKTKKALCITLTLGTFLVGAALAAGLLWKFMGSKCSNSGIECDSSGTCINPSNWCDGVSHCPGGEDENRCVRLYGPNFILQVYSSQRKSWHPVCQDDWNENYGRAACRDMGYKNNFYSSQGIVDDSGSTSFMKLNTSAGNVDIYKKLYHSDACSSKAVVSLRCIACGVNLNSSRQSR
Transmembrane protease serine 2, sequence (O15393 256-492 limits assumed): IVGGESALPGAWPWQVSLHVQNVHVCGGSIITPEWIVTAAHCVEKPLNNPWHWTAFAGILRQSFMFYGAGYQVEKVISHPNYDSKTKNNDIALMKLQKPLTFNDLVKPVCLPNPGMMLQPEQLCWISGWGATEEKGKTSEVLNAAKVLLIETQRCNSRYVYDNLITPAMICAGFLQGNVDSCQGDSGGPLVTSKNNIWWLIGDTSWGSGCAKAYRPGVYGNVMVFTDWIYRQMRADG

Row | SMILES | IC50
1 | COC(=O)Cc1cc(=O)oc2cc(O)ccc12 | 1370 nM
2 | COC(=O)c1ccc(OC(=O)c2cccs2)cc1 [0591-5329] | 930 nM
3 | CCN1CCn2c3c(c4cc(Br)ccc42)CCCC31 (stereo not given) [4401-0077] | 2680 nM
4 | CN(Cc1cc(Br)cc(Br)c1N)C1CCCCC1 [Bromhexine] | 750 nM
5 | CCn1c(-c2ccc(Cl)cc2)csc1=Nc1ccccc1 [8008-1235] | 2640 nM
